In patent publication US9902722B2, “Biaryl kinase inhibitors” (BRISTOL-MYERS SQUIBB COMPANY, priority 2014, dated 2018):

target: GST-Xa-hAAK1 (Homo sapiens (Human), UniProt Q2M2I8); experiment: AAK1 Kinase Assay; format: biochemical; conditions: bacterially expressed GST-Xa-hAAK1 3.5 nM; ATP 22 μM; peptide substrate 1.5 μM; 3 hours at room temperature; Caliper LabChip 3000;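 further: each compound tested across an eleven-point concentration series, with IC50 obtained through non-linear regression fitting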
Sequence (Q2M2I8 whole entry): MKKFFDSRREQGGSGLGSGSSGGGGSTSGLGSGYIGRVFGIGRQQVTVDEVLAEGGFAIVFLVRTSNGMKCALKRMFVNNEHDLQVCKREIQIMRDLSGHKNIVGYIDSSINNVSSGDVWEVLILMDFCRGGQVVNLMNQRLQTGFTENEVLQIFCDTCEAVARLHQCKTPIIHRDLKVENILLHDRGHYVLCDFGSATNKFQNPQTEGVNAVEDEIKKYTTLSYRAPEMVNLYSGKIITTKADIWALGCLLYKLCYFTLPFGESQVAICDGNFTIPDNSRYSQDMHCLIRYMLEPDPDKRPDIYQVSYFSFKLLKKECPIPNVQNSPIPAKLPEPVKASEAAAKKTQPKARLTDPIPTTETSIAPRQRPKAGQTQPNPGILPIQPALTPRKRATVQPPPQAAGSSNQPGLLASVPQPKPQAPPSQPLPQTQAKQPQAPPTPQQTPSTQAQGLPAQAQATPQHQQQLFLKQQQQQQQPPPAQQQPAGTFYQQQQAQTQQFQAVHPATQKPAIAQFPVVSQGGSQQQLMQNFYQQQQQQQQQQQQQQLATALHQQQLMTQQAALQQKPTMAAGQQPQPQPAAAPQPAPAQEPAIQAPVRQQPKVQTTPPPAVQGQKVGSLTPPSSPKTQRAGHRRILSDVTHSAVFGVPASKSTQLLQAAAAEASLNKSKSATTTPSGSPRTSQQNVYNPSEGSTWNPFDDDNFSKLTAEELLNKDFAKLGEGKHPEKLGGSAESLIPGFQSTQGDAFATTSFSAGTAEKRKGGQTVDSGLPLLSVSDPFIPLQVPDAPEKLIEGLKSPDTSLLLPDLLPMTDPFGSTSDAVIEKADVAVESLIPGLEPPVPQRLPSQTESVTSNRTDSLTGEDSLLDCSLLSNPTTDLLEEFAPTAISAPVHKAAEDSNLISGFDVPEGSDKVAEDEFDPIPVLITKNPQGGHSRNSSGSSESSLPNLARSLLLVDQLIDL
Description: The assays were performed in U-bottom 384-well plates. […] The reactions were initiated by the combination of bacterially expressed, GST-Xa-hAAK1 with substrates and test compounds. The reactions were incubated at room temperature for 3 hours and terminated by adding 60 μl of 35 mM EDTA buffer to each sample. […] Compounds were dissolved at 10 mM in dimethylsulfoxide (DMSO) and evaluated at eleven concentrations. IC50 values were derived by non-linear regression analysis.

IC50 | SMILES
0.68 nM | Cc1nccc(-c2ccc(OC[C@@](C)(N)CC(C)C)c(C#N)c2)c1F [Example 103, (S)-2-((2-amino-2,4-dimethylpentyl)oxy)-5-(3-fluoro-2-methylpyridin-4-yl)benzonitrile]
0.83 nM | CC(C)C[C@](C)(N)COc1ccc(-c2ccnc3ccccc23)cc1C#N [Example 104, (S)-2-((2-amino-2,4-dimethylpentyl)oxy)-5-(quinolin-4-yl)benzonitrile]
0.72 nM | Cc1cc(-c2ccc(OC[C@@](C)(N)CC(C)C)c(C#N)c2)c(F)cn1 [Example 105, (S)-2-((2-amino-2,4-dimethylpentyl)oxy)-5-(5-fluoro-2-methylpyridin-4-yl)benzonitrile]
0.62 nM | COC(=O)Nc1cc(-c2ccc(OC[C@@](C)(N)CC(C)C)c(C#N)c2)c(F)cn1 [Example 106, (S)-methyl (4-(4-((2-amino-2,4-dimethylpentyl)oxy)-3-cyanophenyl)-5-fluoropyridin-2-yl)carbamate]
50 nM | Cc1cc(-c2cc(C)c(OC[C@@](C)(N)CC(C)C)c(F)n2)ccn1 [Example 107, (S)-1-((6-fluoro-2′,4-dimethyl-[2,4′-bipyridin]-5-yl)oxy)-2,4-dimethylpentan-2-amine]
106 nM | COC(=O)Nc1cc(-c2ccc(OCC3(CC(C)C)CNC3)c(C)n2)ccn1 [Example 108, methyl (5-((3-isobutylazetidin-3-yl)methoxy)-6-methyl-[2,4′-bipyridin]-2′-yl)carbamate]
340 nM | Cc1cc(-c2ccc(OC[C@@H](N)CC(C)C)c(C#N)c2)cnn1 [Example 109, (S)-2-((2-amino-4-methylpentyl)oxy)-5-(6-methylpyridazin-4-yl)benzonitrile]
3.5 nM | CC(C)C[C@H](N)COc1ccc(-c2ccnc3ccccc23)cc1-c1ccno1 [Example 110, (S)-1-(2-(isoxazol-5-yl)-4-(quinolin-4-yl)phenoxy)-4-methylpentan-2-amine]
650 nM | Cc1nccc(-c2ccc(OC[C@@](C)(N)CC(C)C)c(C(F)(F)F)c2)c1C(=O)O [Example 111, (S)-4-(4-((2-amino-2,4-dimethylpentyl)oxy)-3-(trifluoromethyl)phenyl)-2-methylnicotinic acid]
970 nM | COC(=O)Nc1cc(-c2ccc(OC[C@@](C)(N)CC(C)C)c(CN(C)C)c2)ccn1 [Example 112, (S)-methyl (4-(4-((2-amino-2,4-dimethylpentyl)oxy)-3-((dimethylamino)methyl)phenyl)pyridin-2-yl)carbamate]
43 nM | COC(=O)Nc1cc(-c2ccc(OC[C@@](C)(N)CC(C)C)c(S(C)(=O)=O)c2)ccn1 [Example 113, (S)-methyl (4-(4-((2-amino-2,4-dimethylpentyl)oxy)-3-(methylsulfonyl)phenyl)pyridin-2-yl)carbamate]
1400 nM | Cc1cc(-c2ccc(OC[C@@](C)(N)CC(C)C)c(S(C)(=O)=O)c2)ccn1 [Example 114, (S)-2,4-dimethyl-1-(4-(2-methylpyridin-4-yl)-2-(methylsulfonyl)phenoxy)pentan-2-amine]
13 nM | CC(C)C[C@](C)(N)COc1ccc(-c2ccnc3ccccc23)cc1S(C)(=O)=O [Example 115, (S)-2,4-dimethyl-1-(2-(methylsulfonyl)-4-(quinolin-4-yl)phenoxy)pentan-2-amine]
0.93 nM | CC(C)C[C@](C)(N)COc1ccc(-c2ccnc3ccc(F)cc23)cc1C(F)F [Example 116, (S)-1-(2-(difluoromethyl)-4-(6-fluoroquinolin-4-yl)phenoxy)-2,4-dimethylpentan-2-amine]
1 nM | COC(=O)Nc1cc(-c2ccc(OC[C@@](C)(N)CC(C)C)c(C(F)F)n2)ccn1 [Example 117, (S)-methyl (5-((2-amino-2,4-dimethylpentyl)oxy)-6-(difluoromethyl)-[2,4′-bipyridin]-2′-yl)carbamate]
0.85 nM | CC(C)C[C@](C)(N)COc1ccc(-c2ccnc3ccccc23)nc1C(F)F [Example 118, (S)-1-((2-(difluoromethyl)-6-(quinolin-4-yl)pyridin-3-yl)oxy)-2,4-dimethylpentan-2-amine]
3.2 nM | Cc1cc(-c2ccc(OC[C@@](C)(N)CC(C)C)c(C(F)F)n2)ccn1 [Example 119, (S)-1-((6-(difluoromethyl)-2′-methyl-[2,4′-bipyridin]-5-yl)oxy)-2,4-dimethylpentan-2-amine]
0.51 nM | COC(=O)Nc1cc(-c2cc(C(F)F)c(OC[C@@](C)(N)CC(C)C)cn2)ccn1 [Example 120, (S)-methyl (5-((2-amino-2,4-dimethylpentyl)oxy)-4-(difluoromethyl)-[2,4′-bipyridin]-2′-yl)carbamate]
0.3 nM | CC(C)C[C@](C)(N)COc1cnc(-c2ccnc3ccccc23)cc1C(F)F [Example 121, (S)-1-((4-(difluoromethyl)-6-(quinolin-4-yl)pyridin-3-yl)oxy)-2,4-dimethylpentan-2-amine]
0.51 nM | Cc1cc(-c2cc(C(F)F)c(OC[C@@](C)(N)CC(C)C)cn2)ccn1 [Example 122, (S)-1-((4-(difluoromethyl)-2′-methyl-[2,4′-bipyridin]-5-yl)oxy)-2,4-dimethylpentan-2-amine]

IC50 | SMILES
1.2 nM | CC(C)C[C@](C)(N)COc1cnc(-c2ccnc(C(F)F)c2)cc1C(F)F [Example 124, (S)-1-((2′,4-bis(difluoromethyl)-[2,4′-bipyridin]-5-yl)oxy)-2,4-dimethylpentan-2-amine]
1.6 nM | Cc1cc(-c2ccnc(C(F)F)c2)ncc1OC[C@@](C)(N)CC(C)C [Example 125, (S)-1-((2′-(difluoromethyl)-4-methyl-[2,4′-bipyridin]-5-yl)oxy)-2,4-dimethylpentan-2-amine]
6.2 nM | CC(C)C[C@](C)(N)COc1ccc(-c2ccnc3ccc(F)cc23)nc1C(F)F [Example 127, (S)-1-((2-(difluoromethyl)-6-(6-fluoroquinolin-4-yl)pyridin-3-yl)oxy)-2,4-dimethylpentan-2-amine]
3.5 nM | CC(C)C[C@](C)(N)COc1ccc(-c2ccnc3cc(F)ccc23)nc1C(F)F [Example 128, (S)-1-((2-(difluoromethyl)-6-(7-fluoroquinolin-4-yl)pyridin-3-yl)oxy)-2,4-dimethylpentan-2-amine]
1.4 nM | CC(C)C[C@](C)(N)COc1ccc(-c2ccnc3cc(F)cc(F)c23)nc1C(F)F [Example 129]
1.4 nM | CC(C)C[C@](C)(N)COc1cnc(-c2ccnc3cc(F)cc(F)c23)cc1C(F)F [Example 130, (S)-1-((4-(difluoromethyl)-6-(5,7-difluoroquinolin-4-yl)pyridin-3-yl)oxy)-2,4-dimethylpentan-2-amine]
0.82 nM | CC(C)C[C@](C)(N)COc1cnc(-c2ccnc3cc(F)ccc23)cc1C(F)F [Example 131, (S)-1-((4-(difluoromethyl)-6-(7-fluoroquinolin-4-yl)pyridin-3-yl)oxy)-2,4-dimethylpentan-2-amine]
1.5 nM | CC(C)C[C@](C)(N)COc1cnc(-c2ccnc3ccc(F)cc23)cc1C(F)F [Example 132, (S)-1-((4-(difluoromethyl)-6-(6-fluoroquinolin-4-yl)pyridin-3-yl)oxy)-2,4-dimethylpentan-2-amine]
0.92 nM | CC(C)C[C@](C)(N)COc1cnc(-c2ccnc3ccc(C(F)(F)F)cc23)cc1C(F)F [Example 133]
4.4 nM | CC(C)C[C@](C)(N)COc1cnc(-c2ccnc3ccc(OC(F)(F)F)cc23)cc1C(F)F [Example 134, (S)-1-((4-(difluoromethyl)-6-(6-(trifluoromethoxy)quinolin-4-yl)pyridin-3-yl)oxy)-2,4-dimethylpentan-2-amine]
3.5 nM | CC(C)C[C@](C)(N)COc1ccc(-c2ccnc3cc(F)cc(F)c23)nc1Cl [Example 135, (S)-1-((2-chloro-6-(5,7-difluoroquinolin-4-yl)pyridin-3-yl)oxy)-2,4-dimethylpentan-2-amine]
27 nM | Cc1nc(-c2ccnc3cc(F)ccc23)ccc1OC[C@@](C)(N)CC(C)C [Example 137, (S)-1-((6-(7-fluoroquinolin-4-yl)-2-methylpyridin-3-yl)oxy)-2,4-dimethylpentan-2-amine]
35 nM | Cc1nc(-c2ccnc3ccc(F)cc23)ccc1OC[C@@](C)(N)CC(C)C [Example 138, (S)-1-((6-(6-fluoroquinolin-4-yl)-2-methylpyridin-3-yl)oxy)-2,4-dimethylpentan-2-amine]
0.77 nM | Cc1nccc(-c2ccc(OC[C@@](C)(N)CC(C)C)c(C(F)F)n2)n1 [Example 139, (S)-1-((2-(difluoromethyl)-6-(2-methylpyrimidin-4-yl)pyridin-3-yl)oxy)-2,4-dimethylpentan-2-amine]
1.8 nM | CCc1cc(-c2cc(C(F)F)c(OC[C@@](C)(N)CC(C)C)cn2)ccn1 [Example 141, (S)-1-((4-(difluoromethyl)-2′-ethyl-[2,4′-bipyridin]-5-yl)oxy)-2,4-dimethylpentan-2-amine]
1.3 nM | Cc1cc(-c2cc(C(F)(F)F)c(OC[C@@](C)(N)CC(C)C)cn2)ccn1 [Example 144, (S)-2,4-dimethyl-1-((2′-methyl-4-(trifluoromethyl)-[2,4′-bipyridin]-5-yl)oxy)pentan-2-amine]
0.24 nM | CC(C)C[C@](C)(N)COc1cnc(-c2ccnc3ccccc23)cc1C(F)(F)F [Example 145, (S)-2,4-dimethyl-1-((6-(quinolin-4-yl)-4-(trifluoromethyl)pyridin-3-yl)oxy)pentan-2-amine]
0.19 nM | COC(=O)Nc1cc(-c2cc(C(F)(F)F)c(OC[C@@](C)(N)CC(C)C)cn2)ccn1 [Example 146, (S)-methyl (5-((2-amino-2,4-dimethylpentyl)oxy)-4-(trifluoromethyl)-[2,4′-bipyridin]-2′-yl)carbamate]
0.56 nM | CC(C)C[C@](C)(N)COc1cnc(-c2ccnc(Cl)c2)cc1C(F)F [Example 147, (S)-1-((2′-chloro-4-(difluoromethyl)-[2,4′-bipyridin]-5-yl)oxy)-2,4-dimethylpentan-2-amine]

SMILES | IC50
CC(C)C[C@](C)(N)COc1ccc(-c2ccnc(C(F)F)c2)nc1C(F)F [Example 123, (S)-1-((2′,6-bis(difluoromethyl)-[2,4′-bipyridin]-5-yl)oxy)-2,4-dimethylpentan-2-amine] | 2.2 nM
